Data reported in US9833497B2, “Human originated EGF domain proteins and use of the same” (CHENGDU SOURCEBIO LIMITED-LIABILITY COMPANY, priority 2013, dated 2017).

How the values were obtained:
Type in all cases: cell-based
Citrobacter diversus = test: MIC against Gram-negative bacteria: Citrobacter diversus; conditions: 5×10^5 CFU/mL; for MIC against C. diversus: 96-well plate, 37° C., 10 h; for MIC C. diversus: two-fold serial dilution
Summary of the method: (§1)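 Bacteria grown in LB at 37° C to McFarland 0.5, resuspended and seeded at 5×10^5 CFU/mL in 96-well plates. Purified human EGF-domain proteins two-fold serially diluted, triplicate wells; cultured at 37° C, shaking 175 rpm. MIC = lowest protein concentration with no growth.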

Moraxella catarrhalis = test: MIC against Gram-negative bacteria: Moraxella catarrhalis; conditions: 5×10^5 CFU/mL; for MIC against M. catarrhalis: 96-well plate, 37° C., 10 h; for MIC M. catarrhalis: two-fold serial dilution
Summary of the method: as §1

Aeromonas hydrophila = test: MIC against Gram-negative bacteria: Aeromonas hydrophila; conditions: 5×10^5 CFU/mL; for MIC against A. hydrophila: 96-well plate, 37° C., 10 h; for MIC A. hydrophila: two-fold serial dilution
Summary of the method: as §1

Klebsiella pneumonia = test: MIC against Gram-negative bacteria: Klebsiella pneumonia; conditions: 5×10^5 CFU/mL; for MIC against K. pneumonia: 96-well plate, 37° C., 10 h; for MIC K. pneumonia: two-fold serial dilution
Summary of the method: as §1

Proteus mirabilis = test: MIC against Gram-negative bacteria: Proteus mirabilis; conditions: 5×10^5 CFU/mL; for MIC against P. mirabilis: 96-well plate, 37° C., 10 h; for MIC P. mirabilis: two-fold serial dilution
Summary of the method: as §1

Serratia marcescens = test: MIC against Gram-negative bacteria: Serratia marcescens; conditions: 5×10^5 CFU/mL; for MIC against S. marcescens: 96-well plate, 37° C., 10 h; for MIC S. marcescens: two-fold serial dilution
Summary of the method: as §1

E. coli BL21 = test: MIC against Gram-negative bacteria: E. coli BL21; conditions: 5×10^5 CFU/mL; for MIC against E. coli BL21: 96-well plate, 37° C., 10 h; for MIC E. coli BL21: two-fold serial dilution
Summary of the method: as §1

E. coli DH5α = test: Antibacterial activity: MIC and growth curve against E. coli DH5α in 96-well plate; conditions: minimal inhibitory concentration against E. coli DH5α; 96-well plate, 5×10^5 CFU/mL, 37° C., judged after 8 h
Summary of the method: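 MIC taken as lowest protein level with no bacterial growth, tracked by A600 every 30 min during 37 °C, 175 rpm culture. Two-fold protein series 50-12.5 μg/mL final, triplicate wells, against 5×10^5 CFU/mL of LB-washed mid-log cells.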

Proteus vulgaris = test: MIC against Gram-negative bacteria: Proteus vulgaris; conditions: 5×10^5 CFU/mL; for MIC against P. vulgaris: 96-well plate, 37° C., 10 h; for MIC P. vulgaris: two-fold serial dilution
Summary of the method: as §1

Enterobacter cloacae = test: MIC against Gram-negative bacteria: Enterobacter cloacae; conditions: 5×10^5 CFU/mL; for MIC against E. cloacae: 96-well plate, 37° C., 10 h; for MIC E. cloacae: two-fold serial dilution
Summary of the method: as §1

Pseudomonas aeruginosa = test: MIC against Gram-negative bacteria: Pseudomonas aeruginosa; conditions: 5×10^5 CFU/mL; for MIC against P. aeruginosa: 96-well plate, 37° C., 10 h; for MIC P. aeruginosa: two-fold serial dilution
Summary of the method: as §1

[1] = C. diversus, 10 h cultivation at 37° C.
[2] = M. catarrhalis, 10 h cultivation at 37° C.
[3] = A. hydrophila, 10 h cultivation at 37° C.
[4] = K. pneumonia, 10 h cultivation at 37° C.
[5] = P. mirabilis, 10 h cultivation at 37° C.
[6] = S. marcescens, 10 h cultivation at 37° C.
[7] = E. coli BL21, 10 h cultivation at 37° C.
[8] = P. vulgaris, 10 h cultivation at 37° C.
[9] = E. cloacae, 10 h cultivation at 37° C.
[10] = P. aeruginosa, 10 h cultivation at 37° C.

PRT462 (DVDECLEGLDDCHYNQLCENTPGGHRCSCPRGYRMQGPS; listed as Homo sapiens)
50 µg/mL: MIC against M. catarrhalis (Moraxella catarrhalis)
25 µg/mL: MIC against P. mirabilis (Proteus mirabilis) | MIC against S. marcescens (Serratia marcescens)
12.5 µg/mL: MIC against C. diversus (Citrobacter diversus) | MIC against A. hydrophila (Aeromonas hydrophila) | MIC against K. pneumonia (Klebsiella pneumonia) | MIC against E. coli BL21 (E. coli BL21) | MIC (E. coli DH5α) | MIC against P. vulgaris (Proteus vulgaris) | MIC against E. cloacae (Enterobacter cloacae)
100 µg/mL: MIC against P. aeruginosa (Pseudomonas aeruginosa)

PRT1169 (RDSQCDEATCNNGGTCYDEGDAFKCMCPGGWEGTTCN; listed as Homo sapiens)
25 µg/mL: MIC K. pneumonia (Klebsiella pneumonia; 10 h cultivation at 37° C.) | MIC E. coli BL21 (E. coli BL21; 10 h cultivation at 37° C.)
50 µg/mL: MIC C. diversus (Citrobacter diversus; 10 h cultivation at 37° C.) | MIC (E. coli DH5α) | MIC P. aeruginosa (Pseudomonas aeruginosa; 10 h cultivation at 37° C.)
12.5 µg/mL: MIC M. catarrhalis (Moraxella catarrhalis; 10 h cultivation at 37° C.) | MIC A. hydrophila (Aeromonas hydrophila; 10 h cultivation at 37° C.) | MIC P. mirabilis (Proteus mirabilis; 10 h cultivation at 37° C.) | MIC S. marcescens (Serratia marcescens; 10 h cultivation at 37° C.) | MIC P. vulgaris (Proteus vulgaris; 10 h cultivation at 37° C.) | MIC E. cloacae (Enterobacter cloacae; 10 h cultivation at 37° C.)

PRT785 (IHTCNCHNGAFCSAYDGECKCTPGWTGLYCT; listed as Homo sapiens)
12.5 µg/mL: MIC (μg/mL) C. diversus (Citrobacter diversus; [1]) | MIC (μg/mL) E. cloacae (Enterobacter cloacae; [9])
50 µg/mL: MIC (μg/mL) A. hydrophila (Aeromonas hydrophila; [3]) | MIC (μg/mL) P. mirabilis (Proteus mirabilis; [5]) | MIC (μg/mL) S. marcescens (Serratia marcescens; [6]) | MIC (μg/mL) E. coli BL21 (E. coli BL21; [7])
25 µg/mL: MIC (μg/mL) M. catarrhalis (Moraxella catarrhalis; [2]) | MIC (μg/mL) K. pneumonia (Klebsiella pneumonia; [4]) | MIC (E. coli DH5α) | MIC (μg/mL) P. vulgaris (Proteus vulgaris; [8]) | MIC (μg/mL) P. aeruginosa (Pseudomonas aeruginosa; [10])

PRT399 (DVDECRMLAHLCAHGECINSLGSFRCHCQAGYTPDATATTCL; listed as Homo sapiens)
12.5 µg/mL: MIC (Citrobacter diversus; [1]) | MIC (Proteus mirabilis; [5]) | MIC (Serratia marcescens; [6]) | MIC (E. coli DH5α) | MIC (Enterobacter cloacae; [9]) | MIC (Pseudomonas aeruginosa; [10])
50 µg/mL: MIC (Moraxella catarrhalis; [2]) | MIC (Aeromonas hydrophila; [3]) | MIC (Klebsiella pneumonia; [4]) | MIC (E. coli BL21; [7]) | MIC (Proteus vulgaris; [8])

PRT512 (CACPLISSSNNFSPSCVAEGLDDYRCTACPRGYEGQYCERCAPGYTGSPGNPGGSCQE; listed as Homo sapiens)
12.5 µg/mL: MIC against C. diversus (Citrobacter diversus) | MIC against S. marcescens (Serratia marcescens) | MIC against P. aeruginosa (Pseudomonas aeruginosa)
25 µg/mL: MIC against M. catarrhalis (Moraxella catarrhalis) | MIC against A. hydrophila (Aeromonas hydrophila) | MIC against K. pneumonia (Klebsiella pneumonia) | MIC against E. coli BL21 (E. coli BL21) | MIC against P. vulgaris (Proteus vulgaris)
50 µg/mL: MIC against P. mirabilis (Proteus mirabilis) | MIC (E. coli DH5α) | MIC against E. cloacae (Enterobacter cloacae)

PRT762 (ALDPCVLGTHQCQHVCISDGEGKHHCECSQGYTLNADKKTCS; listed as Homo sapiens)
50 µg/mL: MIC (μg/mL) C. diversus (Citrobacter diversus; [1]) | MIC (μg/mL) P. mirabilis (Proteus mirabilis; [5]) | MIC (E. coli DH5α) | MIC (μg/mL) E. cloacae (Enterobacter cloacae; [9]) | MIC (μg/mL) P. aeruginosa (Pseudomonas aeruginosa; [10])
25 µg/mL: MIC (μg/mL) P. vulgaris (Proteus vulgaris; [8])
12.5 µg/mL: MIC (μg/mL) M. catarrhalis (Moraxella catarrhalis; [2]) | MIC (μg/mL) A. hydrophila (Aeromonas hydrophila; [3]) | MIC (μg/mL) K. pneumonia (Klebsiella pneumonia; [4]) | MIC (μg/mL) S. marcescens (Serratia marcescens; [6]) | MIC (μg/mL) E. coli BL21 (E. coli BL21; [7])

PRT1147 (ELDACSFKPCKNNGSCINKRENWDEQAYECVCHPPFTGKNCS; listed as Homo sapiens)
12.5 µg/mL: MIC M. catarrhalis (Moraxella catarrhalis; 10 h cultivation at 37° C.) | MIC K. pneumonia (Klebsiella pneumonia; 10 h cultivation at 37° C.) | MIC E. coli BL21 (E. coli BL21; 10 h cultivation at 37° C.)
50 µg/mL: MIC (E. coli DH5α) | MIC P. vulgaris (Proteus vulgaris; 10 h cultivation at 37° C.) | MIC E. cloacae (Enterobacter cloacae; 10 h cultivation at 37° C.) | MIC P. aeruginosa (Pseudomonas aeruginosa; 10 h cultivation at 37° C.)
25 µg/mL: MIC C. diversus (Citrobacter diversus; 10 h cultivation at 37° C.) | MIC A. hydrophila (Aeromonas hydrophila; 10 h cultivation at 37° C.) | MIC P. mirabilis (Proteus mirabilis; 10 h cultivation at 37° C.) | MIC S. marcescens (Serratia marcescens; 10 h cultivation at 37° C.)
